From the supplement of paper PMC11208160

test: recombinant barcode read abundance after kanamycin selection (control-corrected) (log10(CPM+1)); higher = more efficient recombination; sequences stand for … in AGTGCAGAGAAAATCGGCCAGTTTTCTCTGCCTGCAGTCCGCATGCCGT…AGATTTATGCAGCGGACTGCCTTTCTCCCAAAGTGATAAACCGGACAGTATCATGGACCGGTTTTCCCGGTAATCCGTATTTGCAAGGTTGGTTTCACT; site = the 11-nt target
In short: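 Two replicates per condition were plated: chloramphenicol/ampicillin LB agar for the control, and chloramphenicol/ampicillin/kanamycin with 0.1 mM IPTG for selection. The pooled E. coli screen behind them paired targets with IS621 bridge RNA target-binding loops. Recombination efficiency is expressed from averaged, control-corrected barcode counts per million at recombinant junctions, as log10(CPM+1).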
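Also: IS621 recombinase and bridge RNA in Escherichia coli cells.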

“TCCGAAGCTTGGGTTCTAACCTGTTGCCT (site GACGAAGCTAG)” and “TCCGAAGCTTGGGTTCTAACCTGTTGCCT (site TCCGAAGCTAG)” are within 0.2 log units of each other in “recombinant barcode read abundance (log10)” value: 0.444 for the first, 0.487 for the second.

First: TCCGACTCTTGGGTTCTAACCTGTTGCCG (site TCCGACTCTCG)
Second: TCCGACTCTTGGGTTCTAACCTGTTGCCG (site TCCTACTCTCG)
The “recombinant barcode read abundance (log10)” value of the first is higher: 1.55 for the first, 0.122 for the second.

Going from “TCCGAGACTTGGGTTCTAACCTGTTGCCA (site TCCGAGACTAG)” to “TCCGAGACTTGGGTTCTAACCTGTTGCCA (site TCCGAGACTCG)”, the “recombinant barcode read abundance (log10)” value falls from 0.598 to 0.208.

Compared with “TCCGAGACTTGGGTTCTAACCTGTTGCCA (site TCCGAGACTGG)”, “TCCGAGACTTGGGTTCTAACCTGTTGCCA (site TCCGAGACTTG)” is higher in “recombinant barcode read abundance (log10)” value: 0.176 for the first, 1.34 for the second.

“TCCGAGACTTGGGTTCTAACCTGTTGCCC (site TCCGAGACTAG)” and “TCCGAGACTTGGGTTCTAACCTGTTGCCC (site TCCGAGACTCG)” are within 0.2 log units of each other in “recombinant barcode read abundance (log10)” value: 0.146 for the first, 0.338 for the second.

First: TCCGAGACTTGGGTTCTAACCTGTTGCCC (site TCCGAGACTGG)
Second: TCCGAGACTTGGGTTCTAACCTGTTGCCC (site TCCGAGACTTG)
The “recombinant barcode read abundance (log10)” value of the first is higher: 1.08 for the first, 0.0317 for the second.

“TCCGCGACTTGGGTTCTAACCTGTTGCCT (site TCAGCGACTAG)” and “TCCGCGACTTGGGTTCTAACCTGTTGCCT (site TCCGCGACTAG)” are within 0.2 log units of each other in “recombinant barcode read abundance (log10)” value: 0.0444 for the first, 0.159 for the second.

First: TCCGCGACTTGGGTTCTAACCTGTTGCCT (site TCGGCGACTAG)
Second: TCCGCGACTTGGGTTCTAACCTGTTGCCT (site TCTGCGACTAG)
The “recombinant barcode read abundance (log10)” value of the first is higher: 0.453 for the first, 0.17 for the second.

“TCCGCTGCTTGGGTTCTAACCTGTTGCCT (site TCCGCTACTAG)” and “TCCGCTGCTTGGGTTCTAACCTGTTGCCT (site TCCGCTCCTAG)” are within 0.2 log units of each other in “recombinant barcode read abundance (log10)” value: 0.151 for the first, 0.0574 for the second.

Going from “TCCGCTGCTTGGGTTCTAACCTGTTGCCT (site TCCGCTGCTAG)” to “TCCGCTGCTTGGGTTCTAACCTGTTGCCT (site TCCGCTTCTAG)”, the “recombinant barcode read abundance (log10)” value falls from 0.283 to 0.00679.

Compared with “TCCGGTACTTGGGTTCTAACCTGTTGCAT (site TCCAGTACTAT)”, “TCCGGTACTTGGGTTCTAACCTGTTGCAT (site TCCCGTACTAT)” is lower in “recombinant barcode read abundance (log10)” value: 0.369 for the first, 0.0823 for the second.

Compared with “TCCGGTACTTGGGTTCTAACCTGTTGCAT (site TCCGGTACTAT)”, “TCCGGTACTTGGGTTCTAACCTGTTGCAT (site TCCTGTACTAT)” is lower in “recombinant barcode read abundance (log10)” value: 0.849 for the first, 0.114 for the second.

Compared with “TCCGTCCCTTGGGTTCTAACCTGTTGCTG (site TCCGTACCTCG)”, “TCCGTCCCTTGGGTTCTAACCTGTTGCTG (site TCCGTCCCTCA)” is higher in “recombinant barcode read abundance (log10)” value: 0.0427 for the first, 1.57 for the second.

Going from “TCCGTGCCTTGGGTTCTAACCTGTTGCCT (site TCCGTGACTAG)” to “TCCGTGCCTTGGGTTCTAACCTGTTGCCT (site TCCGTGCCTAG)”, the “recombinant barcode read abundance (log10)” value rises from 0.00917 to 0.598.

“TCCGTGCCTTGGGTTCTAACCTGTTGCCT (site TCCGTGGCTAG)” and “TCCGTGCCTTGGGTTCTAACCTGTTGCCT (site TCCGTGTCTAG)” are within 0.2 log units of each other in “recombinant barcode read abundance (log10)” value: 0.304 for the first, 0.17 for the second.

Going from “TCCGTTACTTGGGTTCTAACCTGTTGCCG (site CAGCAGCCTAA)” to “TCCGTTACTTGGGTTCTAACCTGTTGCCG (site TCCGTTACTCG)”, the “recombinant barcode read abundance (log10)” value rises from 0.086 to 0.336.

“TCCTCTCCTTGGGTTCTAACCTGTTGCTT (site TCCTCTCCTAA)” and “TCCTCTCCTTGGGTTCTAACCTGTTGCTT (site TGCCCTCCTAA)” are within 0.2 log units of each other in “recombinant barcode read abundance (log10)” value: 0.118 for the first, 0.0451 for the second.

“TCCTGGCCTTGGGTTCTAACCTGTTGCCT (site TCCAGGGCTAG)” and “TCCTGGCCTTGGGTTCTAACCTGTTGCCT (site TCCTGGCCTAG)” are within 0.2 log units of each other in “recombinant barcode read abundance (log10)” value: 0.209 for the first, 0.117 for the second.

Compared with “TCCTGTCCTTGGGTTCTAACCTGTTGCAT (site TCCTGTACTAG)”, “TCCTGTCCTTGGGTTCTAACCTGTTGCAT (site TCCTGTCCTAT)” is higher in “recombinant barcode read abundance (log10)” value: 0.0187 for the first, 0.467 for the second.

Compared with “TCCTGTGCTTGGGTTCTAACCTGTTGCCT (site TCCTGTGCTAG)”, “TCCTGTGCTTGGGTTCTAACCTGTTGCCT (site TTCTATGCTAG)” is lower in “recombinant barcode read abundance (log10)” value: 0.254 for the first, 0.00897 for the second.

Compared with “TCCTTCTCTTGGGTTCTAACCTGTTGCCT (site GAGGGGACTCT)”, “TCCTTCTCTTGGGTTCTAACCTGTTGCCT (site TCCTTCTCTAG)” is higher in “recombinant barcode read abundance (log10)” value: 0.103 for the first, 0.601 for the second.

First: TCGAACCCTTGGGTTCTAACCTGTTGCCT (site TCGAAACCTAG)
Second: TCGAACCCTTGGGTTCTAACCTGTTGCCT (site TCGAACCCTAG)
The “recombinant barcode read abundance (log10)” value of the first is lower: 0.36 for the first, 0.639 for the second.

“TCGAACCCTTGGGTTCTAACCTGTTGCCT (site TCGAAGCCTAG)” and “TCGAACCCTTGGGTTCTAACCTGTTGCCT (site TCGAATCCTAG)” are within 0.2 log units of each other in “recombinant barcode read abundance (log10)” value: 0.115 for the first, 0.151 for the second.

“TCGAACGCTTGGGTTCTAACCTGTTGCTT (site CACGGGACTCT)” and “TCGAACGCTTGGGTTCTAACCTGTTGCTT (site TCGAACGCTAA)” are within 0.2 log units of each other in “recombinant barcode read abundance (log10)” value: 0.115 for the first, 0.135 for the second.

“TCGACCACTTGGGTTCTAACCTGTTGCCT (site TATACCACTAG)” and “TCGACCACTTGGGTTCTAACCTGTTGCCT (site TCGACCACTAG)” are within 0.2 log units of each other in “recombinant barcode read abundance (log10)” value: 0.0386 for the first, 0.115 for the second.

Going from “TCGAGGCCTTGGGTTCTAACCTGTTGCGG (site TAGAGCCCTCC)” to “TCGAGGCCTTGGGTTCTAACCTGTTGCGG (site TCGAGGCCTCC)”, the “recombinant barcode read abundance (log10)” value rises from 0.724 to 1.34.

“TCGAGTCCTTGGGTTCTAACCTGTTGCCA (site TCGAGTCCTTG)” and “TCGAGTCCTTGGGTTCTAACCTGTTGCCA (site TGGTGTCCTTG)” are within 0.2 log units of each other in “recombinant barcode read abundance (log10)” value: 0.084 for the first, 0 for the second.

Compared with “TCGATCACTTGGGTTCTAACCTGTTGCCT (site TCGATCACTAG)”, “TCGATCACTTGGGTTCTAACCTGTTGCCT (site TCGATTACTAG)” is lower in “recombinant barcode read abundance (log10)” value: 0.738 for the first, 0.0188 for the second.

Compared with “TCGATCCCTTGGGTTCTAACCTGTTGCGT (site CTTTGAACTTA)”, “TCGATCCCTTGGGTTCTAACCTGTTGCGT (site TCGATCCCTAC)” is higher in “recombinant barcode read abundance (log10)” value: 0.315 for the first, 1.95 for the second.

In the case of “TCGCACACTTGGGTTCTAACCTGTTGCTG (site TAGCACACTCG)”, the “recombinant barcode read abundance (log10)” value is reported as 0.0637.
